# From PMC5684143, “New melanocortin-like peptide of E. coli can suppress inflammation via the mammalian melanocortin-1 receptor (MC1R): possible endocrine-like function for microbes of the gut” (NPJ Biofilms and Microbiomes, 2017)
# Assays:
# [1] = test system: Balb/C mice; assay: CLP sepsis, survival and serum cytokines at 40 h (protocol B); format: in vivo; conditions: one dose 5 mg/kg i.p. at 24 h
# Method: In vivo studies were performed in accordance with National Institutes of Health guidelines and with the approval of the North Shore-Long Island Jewish Health System’s Institutional Animal Care and Use Committee (IACUC). In mice, polymicrobial sepsis was induced by surgical ligation and perforation of the cecum, a widely used technique known as CLP. Briefly, male BALB/c mice (7–8 weeks old, 20–25 g) were anesthetized with a mixture of ketamine (100 mg/kg) and xylazine (8 mg/kg) intramuscularly, and a 15 mm midline incision was made to expose the cecum. After ligation of the cecum with a 6.0 silk suture below the junction of the ileo–cecal valve, the ligated cecal stump was perforated once with a 22-gauge needle. The cecum was then gently squeezed to extrude a small amount of feces through the perforation site. The cecum was restored to its normal intra-abdominal position, and the laparotomy was closed with 6.0 silk sutures. Immediately after CLP surgery, all animals were resuscitated with normal saline solution (subcutaneously 20 ml/kg body weight), and given a single dose of antibiotics (primaxin 0.5 mg/kg). In sham operated animals, the cecum was temporarily ligated, but the bowel was not punctured; these animals also received antibiotic treatment and resuscitation fluid. […] Survival was monitored twice daily for 2 weeks, at which time survivors were killed (CO2 asphyxia). […] Survival was monitored twice daily after surgery. […]
# The levels of HMGB1 in the culture medium or murine serum were measured by western immunoblotting as previously described.[30] […] The relative band intensity was quantified by using the NIH image 1.59 software. The levels of HMGB1 (expressed as % maximum effect) were calculated with reference to standard curves generated with purified rHMGB1 and expressed as mean ± SEM of four experiments.
# Concentrations of TNF and IL-6 were each determined using a commercially available enzyme-linked immunosorbent assay (ELISA) kit (R&D System Inc.) as previously described.[34] The levels of TNF or IL-6 were calculated with reference to standard curves. […]
# [2] = test system: RAW 264.7 cells; assay: Poly I:C-induced TNF release by RAW 264.7 cells; format: cell-based, murine; conditions: peptide 10^−15 to 10^−9 M; reduced effects above that
# Method: Murine macrophage-like RAW 264.7 cells were obtained from American Type Culture Collection, and were grown in Dulbecco’s Modified Eagle’s Medium (DMEM, Life Technologies) containing 10% (vol/vol) heat-inactivated fetal bovine serum (FBS, Hyclone Lab. Inc.), penicillin 100 U/ml, and streptomycin 100 μg/ml (BioWhittaker Inc.). Cells were suspended in medium and incubated in 24-well or 48-well tissue-culture plates overnight in a humidified incubator (37 °C, 5% CO2). Growth medium was removed and replaced by Opti-MEM I serum-free medium (Life Technologies) overnight. In the experiments, cell monolayers were stimulated with HMGB1 or LPS, in the absence or presence of MECO-1 or alpha-MSH; cell-free supernatants were assayed for TNF by ELISA or HMGB1 by western blotting.
# Concentrations of TNF and IL-6 were each determined using a commercially available enzyme-linked immunosorbent assay (ELISA) kit (R&D System Inc.) as previously described.[34] The levels of TNF or IL-6 were calculated with reference to standard curves.
# Fig. 2 Cytokine-induced TNF release inhibited by MECO-1. a Lipopolysaccharide (LPS), derived from the cell wall of Gram-negative bacteria, is a TLR4 and TLR2 agonist. RAW 264.7 cells were treated with MECO-1 and LPS simultaneously and incubated overnight. Supernatants were tested for TNF with ELISA. b Poly I:C, synthetic double stranded RNA, is recognized by TLR3. […]
substance,measurement,setting,value
alpha-melanocyte-stimulating hormone [alpha-MSH],serum TNF and IL-6 in survivors at 40 h after CLP,"[1]; ELISA, p < 0.05 vs CLP alone",significantly muted responses
same,animals surviving to 40 h after CLP,"[1]; n = 10, saline four out of nine",Six of ten
same,animals with elevated serum HMGB1 at 40 h after CLP,"[1]; western blot, saline three of four",none
same,inhibition of Poly I:C-induced TNF release,[2],up to 90%
